One data set deals with HCoV‐229E. Kind of data set: microbe, parasite or virus in culture. Conditions: at 10 μM, compared with vehicle control, Huh7 cells, n = 1; for inhibition at 10 µM: Human coronavirus 229E, Huh-7, read-out: Protective effects HCoV-229E %. It is filed as cell-based.
A further data set concerns Huh7 cells. Conditions: at 10 μM, compared with vehicle control, n = 1.

Values joined by “and” are separate entries in the source; they are usually repeats but may differ in a detail not shown here. Equal entries are not always repeated. A value given as a limit tells only on which side of the number the result lay.

On to `COc1ccc2c(c1OC)CN1CCc3cc4c(cc3C1C2)OCO4` (stereo not drawn) [Compound 26, (+)‐canadine], for which the “Protective effects HCoV-229E %” value in the data set with HCoV‐229E is given as “— (Not active (insignificant protective effects below 20%))”. For the same compound, the “Cytotoxicity to the host Huh7 cells %” value with Huh7 cells was “— (Non-toxic (insignificant cytotoxic effects, below 20%))”.

With `O=C1c2ccccc2-c2c3c(cc4ccnc1c24)OCO3` [Compound 62, liriodenine], in the data set with HCoV‐229E, the inhibition at 10 µM was less than 20%. Moreover, the “Cytotoxicity to the host Huh7 cells %” value with Huh7 cells is listed as “— (Non-toxic (insignificant cytotoxic effects, below 20%))”.

Take `O[C@@H]1Cc2cc3c(cc2[C@@H]2NCc4c(ccc5c4OCO5)[C@H]12)OCO3` [Compound 48, norchelidonine]: the inhibition at 10 µM with HCoV‐229E was 50%. The “Cytotoxicity to the host Huh7 cells %” value in the data set with Huh7 cells is given as 50%.

On to `COc1cc2c(cc1OC)C1Cc3ccc4c(c3CN1CC2)OCO4` (stereo not drawn) [Compound 43, (−)‐sinactine], for which, in the data set with HCoV‐229E, the “Protective effects HCoV-229E %” value is “— (Not active (insignificant protective effects below 20%))”. Besides, the “Cytotoxicity to the host Huh7 cells %” value with Huh7 cells is given as “— (Non-toxic (insignificant cytotoxic effects, below 20%))”.

For the compound `COc1ccc2cc3n(c(=O)c2c1OC)CCc1cc2c(cc1-3)OCO2` [Compound 22, 8‐oxoberberine], in the data set on HCoV‐229E, the “Protective effects HCoV-229E %” value is “— (Not active (insignificant protective effects below 20%))”. Further, the “Cytotoxicity to the host Huh7 cells %” value with Huh7 cells is “— (Non-toxic (insignificant cytotoxic effects, below 20%))”.

Turning to `CCOC1c2c(ccc(OC)c2OC)-c2ccc3cc4c(cc3c2N1C)OCO4` (centres unmarked) [Compound 52, 6‐ethoxydihydrochelerytrine], the “Protective effects HCoV-229E %” value with HCoV‐229E is recorded as “— (Not active (insignificant protective effects below 20%))”. Moreover, the “Cytotoxicity to the host Huh7 cells %” value with Huh7 cells was 80% and > 80%.

Turning to seco‐isopowellaminone [Compound 6], the “Protective effects HCoV-229E %” value with HCoV‐229E is reported as “— (Not active (insignificant protective effects below 20%))”. The “Cytotoxicity to the host Huh7 cells %” value with Huh7 cells is recorded as 20%.

For `O[C@H]1C=C[C@@]23CCN(Cc4cc5c(cc42)OCO5)[C@@H]3C1` [Compound 14, (−)‐crinine], the “Protective effects HCoV-229E %” value in the data set with HCoV‐229E is on record as “— (Not active (insignificant protective effects below 20%))”. The “Cytotoxicity to the host Huh7 cells %” value with Huh7 cells is given as “— (Non-toxic (insignificant cytotoxic effects, below 20%))”.

For `CCOC1c2c(ccc3c2OCO3)-c2ccc3cc4c(cc3c2N1C)OCO4` (centres unmarked) [Compound 51, 6‐ethoxydihydrosanguinarine], in the data set on HCoV‐229E, the “Protective effects HCoV-229E %” value is listed as “— (Not active (insignificant protective effects below 20%))”. For the same compound, in the data set with Huh7 cells, the “Cytotoxicity to the host Huh7 cells %” value is 90% and > 80%.

For the compound `COc1cc2c(cc1O)[C@@H]1Cc3ccc(OC)c(O)c3CN1CC2` [Compound 33, (−)‐scoulerine], the “Protective effects HCoV-229E %” value in the data set on HCoV‐229E is reported as “— (Not active (insignificant protective effects below 20%))”. The “Cytotoxicity to the host Huh7 cells %” value in the data set on Huh7 cells is 40% and 35%–40%.

As to (±)‐O‐methylfumarofine [Compound 44], in the data set on HCoV‐229E, the “Protective effects HCoV-229E %” value is listed as “— (Not active (insignificant protective effects below 20%))”. Also, the “Cytotoxicity to the host Huh7 cells %” value in the data set on Huh7 cells is “— (Non-toxic (insignificant cytotoxic effects, below 20%))”.

Turning to `O[C@@H]1CC=C2CCN3Cc4cc5c(cc4[C@H]1[C@@H]23)OCO5` [Compound 15, (−)‐caranine], in the data set with HCoV‐229E, the “Protective effects HCoV-229E %” value was “— (Not active (insignificant protective effects below 20%))”. Besides, in the data set with Huh7 cells, the “Cytotoxicity to the host Huh7 cells %” value is on record as “— (Non-toxic (insignificant cytotoxic effects, below 20%))”.

For the compound `COc1cc2c(cc1O)[C@]1(Cc3ccc4c(c3C1=O)OCO4)N(C)CC2` [Compound 42, (+)‐parfumine], the “Protective effects HCoV-229E %” value in the data set on HCoV‐229E was “— (Not active (insignificant protective effects below 20%))”. For the same compound, in the data set on Huh7 cells, the “Cytotoxicity to the host Huh7 cells %” value is given as “— (Non-toxic (insignificant cytotoxic effects, below 20%))”.

In the case of (−)‐berkristine [Compound 21], the “Protective effects HCoV-229E %” value in the data set on HCoV‐229E amounted to 65%. For the same compound, the “Cytotoxicity to the host Huh7 cells %” value in the data set on Huh7 cells is “— (Non-toxic (insignificant cytotoxic effects, below 20%))”.

As to `COc1cc2c(cc1O)C[C@@H]1NCCc3cc(OC)c(OC)c-2c31` [Compound 58, (+)‐laurotetanine], the “Protective effects HCoV-229E %” value in the data set with HCoV‐229E is reported as “— (Not active (insignificant protective effects below 20%))”. Moreover, the “Cytotoxicity to the host Huh7 cells %” value in the data set with Huh7 cells was “— (Non-toxic (insignificant cytotoxic effects, below 20%))”.

Consider `COc1cc2c(cc1OC)[C@H]1[C@@H](C)c3ccc(OC)c(OC)c3CN1CC2` [Compound 31, (+)‐corydaline], for which the “Protective effects HCoV-229E %” value in the data set on HCoV‐229E is listed as “— (Not active (insignificant protective effects below 20%))”. Moreover, the “Cytotoxicity to the host Huh7 cells %” value in the data set with Huh7 cells is on record as “— (Non-toxic (insignificant cytotoxic effects, below 20%))”.

Turning to `COc1ccc2c(c1OC)C(=O)O[C@@H]2[C@H]1c2c(cc3c(c2OC)OCO3)CCN1C` [Compound 55, (−)‐narcotine], the inhibition at 10 µM with HCoV‐229E is less than 20%. For the same compound, the “Cytotoxicity to the host Huh7 cells %” value in the data set on Huh7 cells turned out to be 20%.

Regarding `COc1cc2c(cc1OC)-c1c(OC)c(OC)cc3ccnc(c13)C2=O` [Compound 61, oxoglaucine], the inhibition at 10 µM in the data set on HCoV‐229E is less than 20%. In the data set with Huh7 cells, the “Cytotoxicity to the host Huh7 cells %” value is “— (Non-toxic (insignificant cytotoxic effects, below 20%))”.

With `COc1cc2c(cc1O)[C@@H]1Cc3cc4c(cc3[C@H](C2)N1C)OCO4` [Compound 34, (−)‐caryachine], the “Protective effects HCoV-229E %” value in the data set on HCoV‐229E is given as “— (Not active (insignificant protective effects below 20%))”. For the same compound, the “Cytotoxicity to the host Huh7 cells %” value in the data set with Huh7 cells was “— (Non-toxic (insignificant cytotoxic effects, below 20%))”.

`COc1ccc2c(c1OC)CN(C)CCc1cc3c(cc1C(=O)C2)OCO3` [Compound 29, Allocryptopine]: in the data set on HCoV‐229E, the inhibition at 10 µM is less than 20%. Moreover, the “Cytotoxicity to the host Huh7 cells %” value in the data set on Huh7 cells is given as “— (Non-toxic (insignificant cytotoxic effects, below 20%))”.

Take `COc1cc2c(cc1OC)C1(Cc3ccc4c(c3C1OC(C)=O)OCO4)N(C)CC2` (stereo not drawn) [Compound 39, (−)‐O‐methylfumarophycine]: the “Protective effects HCoV-229E %” value in the data set with HCoV‐229E is given as “— (Not active (insignificant protective effects below 20%))”. Moreover, in the data set with Huh7 cells, the “Cytotoxicity to the host Huh7 cells %” value is on record as “— (Non-toxic (insignificant cytotoxic effects, below 20%))”.

As for `CN1CCC2=CC[C@H]3OC(=O)c4cc5c(cc4[C@H]3[C@@H]21)OCO5` [Compound 11, masonine], the “Protective effects HCoV-229E %” value in the data set on HCoV‐229E is listed as “— (Not active (insignificant protective effects below 20%))”. Moreover, the “Cytotoxicity to the host Huh7 cells %” value with Huh7 cells is “— (Non-toxic (insignificant cytotoxic effects, below 20%))”.

As for `COC1=C[C@]23CCN(C)[C@H](Cc4ccc(OC)c(O)c42)C3=CC1=O` [Compound 59, (−)‐salutaridine], the “Protective effects HCoV-229E %” value in the data set with HCoV‐229E was “— (Not active (insignificant protective effects below 20%))”. Moreover, in the data set on Huh7 cells, the “Cytotoxicity to the host Huh7 cells %” value is recorded as “— (Non-toxic (insignificant cytotoxic effects, below 20%))”.

Consider `COc1cc2c(cc1OC)[C@H]1[C@H]3C(=CC[C@H]1OC2=O)CCN3C` [Compound 10, homolycorine], for which the inhibition at 10 µM with HCoV‐229E was determined as 40%. For the same compound, the “Cytotoxicity to the host Huh7 cells %” value in the data set on Huh7 cells is on record as “— (Non-toxic (insignificant cytotoxic effects, below 20%))”.

Regarding (−)‐undulatine [Compound 13], the “Protective effects HCoV-229E %” value with HCoV‐229E is on record as “— (Not active (insignificant protective effects below 20%))”. In addition, the “Cytotoxicity to the host Huh7 cells %” value in the data set with Huh7 cells was “— (Non-toxic (insignificant cytotoxic effects, below 20%))”.

As to `CN1CCC2=C[C@H](O)[C@H]3OC(=O)c4cc5c(cc4[C@H]3[C@@H]21)OCO5` [Compound 12, hippeastrine], the “Protective effects HCoV-229E %” value in the data set with HCoV‐229E is reported as “— (Not active (insignificant protective effects below 20%))”. Besides, in the data set with Huh7 cells, the “Cytotoxicity to the host Huh7 cells %” value was found to be 25%.

As to `COc1cc2c(cc1O)[C@@H]1Cc3ccc(OC)c(OC)c3CN1CC2` [Compound 32, tetrahydrocolumbamine], in the data set on HCoV‐229E, the “Protective effects HCoV-229E %” value is “— (Not active (insignificant protective effects below 20%))”. In addition, in the data set with Huh7 cells, the “Cytotoxicity to the host Huh7 cells %” value is given as “— (Non-toxic (insignificant cytotoxic effects, below 20%))”.

In the case of `c1cc2c(c3c1C[C@H]1c4cc5c(cc4CCN1C3)OCO5)OCO2` [Compound 49, (−)‐stylopine], the “Protective effects HCoV-229E %” value in the data set on HCoV‐229E is recorded as “— (Not active (insignificant protective effects below 20%))”. For the same compound, the “Cytotoxicity to the host Huh7 cells %” value in the data set with Huh7 cells was “— (Non-toxic (insignificant cytotoxic effects, below 20%))”.

Consider N‐methyllaurotetanine [Compound 56], for which the “Protective effects HCoV-229E %” value in the data set with HCoV‐229E was “— (Not active (insignificant protective effects below 20%))”. Also, the “Cytotoxicity to the host Huh7 cells %” value with Huh7 cells is “— (Non-toxic (insignificant cytotoxic effects, below 20%))”.

As to `COC1=C[C@@]23CCN(C)[C@@H](Cc4cc(O)c(OC)cc42)C3=CC1=O` [Compound 60, (−)‐pallidine], in the data set with HCoV‐229E, the “Protective effects HCoV-229E %” value was “— (Not active (insignificant protective effects below 20%))”. Also, in the data set on Huh7 cells, the “Cytotoxicity to the host Huh7 cells %” value is “— (Non-toxic (insignificant cytotoxic effects, below 20%))”.

On to (−)‐O‐methylcaryachine [Compound 35], for which the “Protective effects HCoV-229E %” value with HCoV‐229E is recorded as “— (Not active (insignificant protective effects below 20%))”. Besides, the “Cytotoxicity to the host Huh7 cells %” value in the data set with Huh7 cells is listed as “— (Non-toxic (insignificant cytotoxic effects, below 20%))”.

As to `CN1CCc2cc3c(cc2[C@]12Cc1ccc4c(c1C2=O)OCO4)OCO3` [Compound 41, (+)‐fumariline], the “Protective effects HCoV-229E %” value in the data set on HCoV‐229E is on record as “— (Not active (insignificant protective effects below 20%))”. Further, the “Cytotoxicity to the host Huh7 cells %” value in the data set on Huh7 cells is “— (Non-toxic (insignificant cytotoxic effects, below 20%))”.

As for `O[C@H]1[C@H]2c3cc4c(cc3CN3CCC(=C[C@@H]1O)[C@H]23)OCO4` [Compound 9, lycorine], in the data set on HCoV‐229E, the inhibition at 10 µM was less than 20%. The “Cytotoxicity to the host Huh7 cells %” value in the data set with Huh7 cells is listed as “— (Non-toxic (insignificant cytotoxic effects, below 20%))”.

On to `CN1CCC2=CCC3OC(O)c4cc5c(cc4C3C21)OCO5` (centres unmarked) [Compound 8, oduline], for which the “Protective effects HCoV-229E %” value in the data set with HCoV‐229E is “— (Not active (insignificant protective effects below 20%))”. The “Cytotoxicity to the host Huh7 cells %” value in the data set on Huh7 cells was determined as 20%.

As to `COc1cc2c(cc1Oc1c3c(cc(OC)c1OC)CCN(C)C3)C(Cc1ccc(O)cc1)N(C)CC2` (stereo not drawn) [Compound 20, (−)‐muraricine], the “Protective effects HCoV-229E %” value in the data set on HCoV‐229E is 50%. Also, the “Cytotoxicity to the host Huh7 cells %” value in the data set on Huh7 cells is “— (Non-toxic (insignificant cytotoxic effects, below 20%))”.

As to (+)‐thalictricavine [Compound 27], the “Protective effects HCoV-229E %” value in the data set with HCoV‐229E is “— (Not active (insignificant protective effects below 20%))”.

The values above are taken from publication PMC12497685, “Anticoronavirus Isoquinoline Alkaloids: Unraveling the Secrets of Their Structure–Activity Relationship” (Influenza and Other Respiratory Viruses, 2025).
